From US7109193B2, “Tricyclic diazepines tocolytic oxytocin receptor antagonists” (Wyeth, priority 2001, dated 2006)

Molecular target: T1, human oxytocin receptor (Homo sapiens, UniProt P30559)
T1 construct: host or cells: CHO cells (pcDNA3.1 vector)
T1 sequence (P30559 1-389): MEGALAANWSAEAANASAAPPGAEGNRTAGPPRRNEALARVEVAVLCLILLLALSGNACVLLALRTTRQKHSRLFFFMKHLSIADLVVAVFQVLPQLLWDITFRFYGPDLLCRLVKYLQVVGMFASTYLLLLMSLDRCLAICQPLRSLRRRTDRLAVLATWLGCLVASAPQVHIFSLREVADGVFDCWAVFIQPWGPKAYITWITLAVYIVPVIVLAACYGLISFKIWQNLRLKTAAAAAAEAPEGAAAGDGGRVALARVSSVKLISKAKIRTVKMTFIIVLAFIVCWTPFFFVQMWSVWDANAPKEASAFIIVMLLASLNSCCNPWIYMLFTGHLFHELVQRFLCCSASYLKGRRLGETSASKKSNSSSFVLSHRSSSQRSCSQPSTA
Assay: Oxytocin binding in Chinese Hamster Ovary cell membranes expressing human oxytocin receptors
Conditions: CHO cell membranes, [3H]oxytocin; for inhibition at 0.1 µM: 100 nM, values without parentheses, read-out: OT % inhibition @ 100% nM; for IC50: values in parentheses, read-out: OT (IC50)

inhibition at 0.1 µM [%] | IC50 [nM] | SMILES
97 | – | COc1cccc(-c2ccc(C(=O)N3Cc4ccc(C(=O)N(C)CCN(C)C)n4Cc4ccccc43)cc2C)c1 [Example 89, N-[2-(Dimethylamino)ethyl]-10-[(3′-methoxy-2-methyl[1,1′-biphenyl]-4-yl)carbonyl]-N-methyl-10,11-dihydro-5H-pyrrolo[2,1-c][1,4]benzodiazepine-3-carboxamide]
– | 7.14 | Cc1cc(C(=O)N2Cc3ccc(C(=O)N(C)CCCN(C)C)n3Cc3ccccc32)ccc1-c1ccccc1C(F)(F)F [Example 97, N-[3-(Dimethylamino)propyl]-N-methyl-10-{[2-methyl-2′-(trifluoromethyl)[1,1′-biphenyl]-4-yl]carbonyl}-10,11-dihydro-5H-pyrrolo[2,1-c][1,4]benzodiazepine-3-carboxamide]
– | 16.9 | COc1ccccc1-c1ccc(C(=O)N2Cc3ccc(C(=O)N4CCN(CCCN(C)C)CC4)n3Cc3ccccc32)cc1C [Example 245, {4-[3-(Dimethylamino)propyl]-1-piperazinyl}{10-[(2′-methoxy-2-methyl[1,1′-biphenyl]-4-yl)carbonyl]-10,11-dihydro-5H-pyrrolo[2,1-c][1,4]benzodiazepin-3-yl}methanone]
– | 29.5 | O=C(c1ccc(-c2cccc3ccccc23)nc1)N1Cc2cccn2Cc2ccccc21 [Example 28, [6-(Naphthalen-1-yl)-pyridin-3-yl]-[10,11-dihydro-5H-pyrrolo[2,1-c][1,4]benzodiazepin-10-yl]methanone]
100 | – | Cc1ccccc1-c1ccc(C(=O)N2Cc3ccc(C(=O)N(C)CCCN(C)C)n3Cc3ccccc32)cc1C [Example 101, N-[3-(Dimethylamino)propyl]-10-[(2,2′-dimethyl[1,1′-biphenyl]-4-yl)carbonyl]-N-methyl-10,11-dihydro-5H-pyrrolo[2,1-c][1,4]benzodiazepine-3-carboxamide]
– | 11.6 | Cc1cc(C(=O)N2Cc3ccc(C(=O)N4CCN(CCN(C)C)CC4)n3Cc3ccccc32)ccc1-c1ccccc1C(F)(F)F [Example 196, {4-[2-(Dimethylamino)ethyl]-1-piperazinyl}(10-{[2-methyl-2′-(trifluoromethyl)[1,1′-biphenyl]-4-yl]carbonyl}-10,11-dihydro-5H-pyrrolo[2,1-c][1,4]benzodiazepin-3-yl)methanone]
98 | – | COc1ccccc1-c1ccc(C(=O)N2Cc3ccc(C(=O)N(C)CCCN(C)C)n3Cc3ccccc32)cc1 [Example 103, N-[3-(Dimethylamino)propyl]-10-[(2′-methoxy[1,1′-biphenyl]-4-yl)carbonyl]-N-methyl-10,11-dihydro-5H-pyrrolo[2,1-c][1,4]benzodiazepine-3-carboxamide]
– | 16.4 | Cc1cc(C(=O)N2Cc3ccc(C(=O)N4CCCN(C)CC4)n3Cc3ccccc32)ccc1-c1ccccc1C(F)(F)F [Example 59, (4-Methyl-1,4-diazepan-1-yl)(10-{[2-methyl-2′-(trifluoromethyl)[1,1′-biphenyl]-4-yl]carbonyl}-10,11-dihydro-5H-pyrrolo[2,1-c][1,4]benzodiazepin-3-yl)methanone]
97 | – | COc1cccc(-c2ccc(C(=O)N3Cc4ccc(C(=O)N(C)CCN(C)C)n4Cc4ccccc43)cc2OC)c1 [Example 95, 10-[(2,3′-Dimethoxy[1,1′-biphenyl]-4-yl)carbonyl]-N-[2-(dimethylamino)ethyl]-N-methyl-10,11-dihydro-5H-pyrrolo[2,1-c][1,4]benzodiazepine-3-carboxamide]
– | 6.61 | COc1cc(-c2ccccc2C)c(Cl)cc1C(=O)N1Cc2ccc(C(=O)N3CCN(C)CC3)n2Cc2ccccc21 [Example 47, {10-[(6-Chloro-3-methoxy-2′-methyl[1,1′-biphenyl]-4-yl)carbonyl]-10,11-dihydro-5H-pyrrolo[2,1-c][1,4]benzodiazepin-3-yl}(4-methyl-1-piperazinyl)methanone]
– | 8.89 | Cc1cc(C(=O)N2Cc3ccc(C(=O)N4CCN(CCCN(C)C)CC4)n3Cc3ccccc32)ccc1-c1ccccc1C(F)(F)F [Example 4, [4-(3-Dimethylaminopropyl)-piperazin-1-yl]-[10-(2-methyl-2′-trifluoromethyl-[1,1′-biphenyl]-4-yl)carbonyl]-[10,11-dihydro-5H-pyrrolo[2,1-c][1,4]benzodiazepin-3-yl]-methanone]
– | 3.44 | COc1cc(-c2ccccc2C)ccc1C(=O)N1Cc2ccc(C(=O)N(C)CCCN(C)C)n2Cc2ccccc21 [Example 11, N-Methyl-N-[3-(dimethylamino)propyl]-10-[(3-methoxy-2′-methyl[1,1′-biphenyl]-4-yl)carbonyl]-10,11-dihydro-5H-pyrrolo[2,1-c][1,4]benzodiazepine-3-carboxamide]
100 | – | COc1ccccc1-c1ccc(C(=O)N2Cc3ccc(C(=O)N(C)CCN(C)C)n3Cc3ccccc32)cc1 [Example 90, N-[2-(Dimethylamino)ethyl]-10-[(2′-methoxy[1,1′-biphenyl]-4-yl)carbonyl]-N-methyl-10,11-dihydro-5H-pyrrolo[2,1-c][1,4]benzodiazepine-3-carboxamide]
96 | – | Cc1ccccc1-c1ccc(C(=O)N2Cc3ccc(C(=O)N(C)CCCN(C)C)n3Cc3ccccc32)cc1 [Example 104, N-[3-(Dimethylamino)propyl]-N-methyl-10-[(2′-methyl[1,1′-biphenyl]-4-yl)carbonyl]-10,11-dihydro-5H-pyrrolo[2,1-c][1,4]benzodiazepine-3-carboxamide]
97 | – | Cc1ccccc1-c1ccc(C(=O)N2Cc3ccc(C(=O)N(C)CCN(C)C)n3Cc3ccccc32)cc1 [Example 91, N-[2-(Dimethylamino)ethyl]-N-methyl-10-[(2′-methyl[1,1′-biphenyl]-4-yl)carbonyl]-10,11-dihydro-5H-pyrrolo[2,1-c][1,4]benzodiazepine-3-carboxamide]
44 | – | COc1cc(C(=O)N2Cc3ccc(C(=O)NCCCN(C)C)n3Cc3ccccc32)ccc1-c1cccc2ccccc12 [Example 80, N-[3-(Dimethylamino)propyl]-10-[3-methoxy-4-(1-naphthyl)benzoyl]-10,11-dihydro-5H-pyrrolo[2,1-c][1,4]benzodiazepine-3-carboxamide]
– | 2.61 | COc1ccccc1-c1ccc(C(=O)N2Cc3ccc(C(=O)N4CC[C@@H](N(C)C)C4)n3Cc3ccccc32)cc1C [Example 272, [(3R)-3-(Dimethylamino)pyrrolidinyl]{10-[(2′-methoxy-2-methyl[1,1′-biphenyl]-4-yl)carbonyl]-10,11-dihydro-5H-pyrrolo[2,1-c][1,4]benzodiazepin-3-yl}methanone]
